Measured values published in patent publication US12180138B2, “Lipid nanoparticle compositions for delivering circular polynucleotides” (Orna Therapeutics, Inc., priority 2021, dated 2024).

Columns and labels:
[1] = tested on: splenic immune cells (T cells, myeloid cells, B cells, NK cells); assay: mOX40L expression in splenic immune cells after IV LNP-circular RNA (flow cytometry); type: in vivo, C57BL/6 mice; conditions: 1 mg/kg intravenously, 24 hours; IL:P 5.7; vs Lipid 15 of Table 10f
Procedure: The ionizable lipid:helper lipid:cholesterol:PEG-lipid molar ratio of these LNPs was 50:10:38.5:1.5. Dialysis of the LNPs were performed using PBS. C57BL/6 female mice (6-8 weeks, n=4) were dosed at either LNP comprising Lipid 1 of Table 10e or the Lipid 15 of Table 10f at 1 mg/kg intravenously. At 24 hours, the spleen from the mice were collected for flow cytometry analysis. mOX40L transfection of Lipid 1 of Table 10e and Lipid 15 of Table 10f were compared in T cells, myeloid cells, B cells, and NK cells.

splenic T cells = assay: mOX40L expression in splenic T cells after IV LNP-circular RNA; type: in vivo, C57BL/6 mice; conditions: 1 mg/kg intravenously, 24 hours
Procedure: The ionizable lipid:helper lipid: cholesterol:PEG-lipid molar ratio of these LNPs was 50:10:38.5:1.5. C57BL/6 female mice (6-8 weeks, n=4) were dosed at 1 mg/kg intravenously. At 24 hours, the spleen from the mice were collected for flow cytometry analysis, tested for weight loss and measured for serum alanine aminotransferase (ALT) after blood collection. mOX40L expression was measured in splenic T cells.

CCCCCCCCCCCCC(O)CN(CCCO)CCCCCCCC(=O)OC(CCCCCCCC)CCCCCCCC (centres unmarked) [Lipid 1 of Table 10e, heptadecan-9-yl 8-((3-hydroxypropyl)(2-hydroxytetradecyl)amino)octanoate]
mOX40L transfection in splenic immune cells [1]: comparable or higher levels of mOX40L transfection | mOX40L expression in splenic T cells (splenic T cells): expression of mOX40L in splenic T cells
